Assay results published in US4438136A, “Prostaglandins” (National Research Development Corporation, priority 1979, dated 1984).

Key:
[1] = molecular target: T1, Rabbit Aorta (Oryctolagus cuniculus, UniProt Q6WQI8); assay: Rabbit Aorta System: antagonism of contraction of aorta strips induced by 11,9-(epoxymethano) PGH2; type: cell-based; details: for Kb: read-out: AFFINITY CONSTANTS (KB) Rabbit Aorta (converted); for antagonist/agonist character in rabbit aorta strip test: in words
T1 construct: contraction by 11,9-(epoxymethano)PGH2 (U-46619)
T1 sequence (Q6WQI8 1-233): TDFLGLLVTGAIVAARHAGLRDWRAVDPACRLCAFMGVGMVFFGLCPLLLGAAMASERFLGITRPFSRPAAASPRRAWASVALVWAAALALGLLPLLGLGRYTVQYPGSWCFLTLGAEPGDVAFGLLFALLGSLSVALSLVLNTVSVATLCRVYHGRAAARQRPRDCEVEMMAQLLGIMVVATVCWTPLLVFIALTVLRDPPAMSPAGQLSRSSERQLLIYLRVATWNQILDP
Description: (§1) It is believed that such inhibition is the result of the compounds being thromboxane antagonists and the activity of the compounds is for convenience hereinafter discussed in these terms. […] The related compounds described and claimed in our copending application Ser. No. 431,554 filed Sept. […] Structural features which tend to endow these compounds with a more pure antagonist form of activity are described in that application. It has been found, however, that the compounds of the present invention generally show little tendency to deviate from pure antagonist activity. Activity has also been observed on compounds according to the present invention on guinea pigs tracheal muscle.
(§2) Various of the compounds described in Examples 1 to 3 are tested for biological activity in the human platelet and rabbit aorta systems.
(§3) [B]=molar concentration of compound
Spiral strips of thoracic aorta are suspended in Kreb's-Henseleit solution and aerated with 95% O2 /5% CO2 at 37° C. Tension changes are recorded with a Grass FTO3 force transducer. Initially, cumulative dose response curves to 11,9-(epoxymethano) PGH2 (2×10^-9, 1×10^-8, 5×10^-8 and 2.5×10^-7 M) are obtained. In a second experiment the individual compounds are added 30 mins previous to the addition of the series of agonist doses. Affinity constants are calculated as above.

[2] = molecular target: T2, Human Platelets (Homo sapiens, UniProt P21731); assay: Human Platelet System: antagonism of platelet aggregation induced by 11,9-(epoxymethano) PGH2; type: cell-based; details: for Kb: vs 11,9-epoxymethano PGH2 (1×10^-7 to 5×10^-7 M), compound added 5 minutes before, Gaddum-Schild, read-out: AFFINITY CONSTANTS (KB) Human Platelets (converted); for inhibition of aggregatory activity of 11,9-(epoxymethano) PGH2 / antagonism in platelet test: human platelets in vitro, in words
T2 construct: Platelet-rich plasma is obtained from fresh, citrated human blood; endogenous in cells; host or cells: human platelets (platelet-rich plasma from citrated blood)
T2 sequence (P21731 1-343): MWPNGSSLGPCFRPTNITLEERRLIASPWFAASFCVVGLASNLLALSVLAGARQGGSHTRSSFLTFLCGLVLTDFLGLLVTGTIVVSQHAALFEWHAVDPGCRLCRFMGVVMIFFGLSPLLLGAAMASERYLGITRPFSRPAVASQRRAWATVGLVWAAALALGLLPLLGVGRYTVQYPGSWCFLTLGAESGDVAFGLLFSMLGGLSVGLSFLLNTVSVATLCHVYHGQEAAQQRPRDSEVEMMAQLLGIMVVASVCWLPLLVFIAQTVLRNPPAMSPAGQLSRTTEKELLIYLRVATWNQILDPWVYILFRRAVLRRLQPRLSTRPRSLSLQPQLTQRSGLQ
Description: as §1, §2
Platelet-rich plasma is obtained from fresh, citrated human blood. Addition of the 11,9-epoxymethano analogue of PGH2 (1×10^-7 to 5×10^-7 M) causes immediate aggregation recorded as an increase in light transmission (600 nm). In a second experiment the individual compounds are added 5 minutes previously to addition of the PGH2 analogue. The dose of the PGH2 analogue added is then increased to a level which gives a similar response to that obtained in the absence of antogonist. The affinity constant, KB, for the compound is calculated according to the Gaddum-Schild Equation (based on Law of Mass Action).
as §3

[3] = test system: Human Platelets; assay: Antagonism of ADP aggregatory action on platelets; type: cell-based
[4] = test system: platelet; assay: Block of aggregatory action of arachidonic acid on platelets; type: cell-based, human; details: in words
[5] = test system: α-adrenoceptors; assay: Block of contractile action of noradrenaline (α-adrenoceptors); type: cell-based, rabbit; details: in words
[6] = vs 11,9-(epoxymethano) PGH2, compound added 30 mins before, Gaddum-Schild

SMILES | Kb [2] [nM] | Kb [1, 6] [nM] | further results
CN(C)c1ccc(C(=O)NN=C[C@H]2[C@@H]3CC[C@@H](C3)[C@@H]2C/C=C\CCCC(=O)O)cc1 (relative stereo) | 10000 |  | AFFINITY CONSTANTS (KB) Rabbit Aorta [1, 6]: < 2.5e-05 L/mol
COc1ccc(C(=O)NN=C[C@H]2[C@@H]3CC[C@@H](C3)[C@@H]2C/C=C\CCCC(=O)O)cc1 (relative stereo) |  | 5000 | 
O=C(O)CCC/C=C\C[C@H]1[C@H]2CC[C@H](C2)[C@@H]1C=NNC(=O)Cc1ccccc1 (relative stereo) |  | 1490 | 
O=C(O)CCC/C=C\C[C@H]1[C@H]2CC[C@H](C2)[C@@H]1C=NNC(=O)C(c1ccccc1)c1ccccc1 (relative stereo) | 1390 | 256 | Kb ([3]; antagonism of ADP, table head gives liters/mole, 5 min): 8330 nM; antagonism of ADP ([3]; in words): Slight antagonism of ADP
O=C(O)CCC/C=C\C[C@H]1[C@H]2CC[C@H](C2)[C@@H]1C=NNC(=O)CC(c1ccccc1)c1ccccc1 (relative stereo) | 500 | 1520 | 
O=C(O)CCC/C=C\C[C@H]1[C@H]2CC[C@H](C2)[C@@H]1C=NNC(=O)COc1ccccc1 (relative stereo) | 19200 | 2700 | 
O=C(O)CCCCCC[C@H]1[C@H]2CC[C@H](C2)[C@@H]1C=NNC(=O)Nc1ccccc1 (relative stereo) | 1450 | 1200 | 
O=C(O)CCC/C=C\C[C@H]1[C@H]2CC[C@H](C2)[C@@H]1C=NNC(=O)c1ccc(F)cc1 (relative stereo) [Example 1, 5-endo-(6'-Caboxyhex-2'Z-enyl)-6-exo-(N-p-fluorobenzoylhydrazonomethyl)-bicyclo[2,2,1]heptane] |  |  | block of aggregatory action of arachidonic acid [4]: block the aggregatory action of archidonic acid; block of contractile action of noradrenaline [5]: do not block the contractile action of noradrenaline; antagonist/agonist character in rabbit aorta strip test [1]: pure antagonists in the rabbit aorta strip test; inhibition of aggregatory activity of 11,9-(epoxymethano) PGH2 / antagonism in platelet test [2]: antagonists in the platelet test
O=C(O)CCC/C=C\C[C@H]1[C@H]2CC[C@H](C2)[C@@H]1C=NNC(=O)Nc1ccccc1 (relative stereo) [Example 3, 5-endo-(6'-carboxyhex-2'Z-enyl)-6-exo-[N-(phenylcarbamoyl)-hydrazonomethyl]-bicyclo[2,2,1]heptane] |  |  | block of aggregatory action of arachidonic acid [4]: block the aggregatory action of archidonic acid; block of contractile action of noradrenaline [5]: do not block the contractile action of noradrenaline; antagonist/agonist character in rabbit aorta strip test [1]: pure antagonists in the rabbit aorta strip test; inhibition of aggregatory activity of 11,9-(epoxymethano) PGH2 / antagonism in platelet test [2]: antagonists in the platelet test
O=C(O)CCC/C=C\C[C@H]1[C@H]2CC[C@H](C2)[C@@H]1C=NNC(=O)c1ccc(F)cc1 (relative stereo) [drawing 24] | 4760 | 1280 | 
O=C(O)CCC/C=C\C[C@H]1[C@H]2CC[C@H](C2)[C@@H]1C=NNC(=O)Nc1ccccc1 (relative stereo) [drawing 31] | 1430 | 769 | 
